Data on four compounds can be found in US10149473B2, “Aminoindanes amides having a high fungicidal activity and their phytosanitary compositions” (STITCHING I-F PRODUCT COLLABORATION, priority 2010, dated 2018).

Data set [1] deals with wheat plants. In words: Phytotoxicity (percentage of leaf necrosis) induced on wheat plants. In kind it is in vivo, wheat (Salgemma variety). The conditions noted are these: 125 ppm on wheat, scale 0 = completely healthy plant to 100 = completely necrotized plant. On the procedure: (§1) Leaves of wheat plants of the Salgemma variety, grown in pots in a conditioned environment kept at 20° C. and 70% of relative humidity (R.H.), were treated by spraying on both sides of the leaves with the compounds under examination, dispersed in hydroacetonic solutions at 20% by volume of acetone.
At the same time, the phytotoxicity was evaluated (percentage of leaf necrosis) induced on the wheat plants by the application of the products: in this case, the evaluation scale varies from 0 (completely healthy plant) to 100 (completely necrotized plant).

The subject of data set [2] is Erysiphe graminis. In words: Fungicidal activity in preventive application (5 days) against Erysiphe graminis on wheat. In kind it is in vivo, Erysiphe graminis on wheat (Salgemma variety). The following applies: 125 ppm, leaf spray, infection 5 days after treatment, evaluation after 12 days, percentage scale 100 = healthy plant, 0 = completely infected plant; for Activity NT (parts which had developed during the test): non-treated parts (NT). The protocol: Determination of the Fungicidal Activity in Preventive Application (5 Days) Against Erysiphe graminis on Wheat.
as §1
After remaining 5 days in a conditioned environment, the plants were infected under dry conditions by shaking over them, in order to distribute the inoculum, plants previously infected by Erysiphe graminis.
The plants were then maintained in the same cell, in a humidity-saturated environment and at a temperature ranging from 18 to 24° C. for 12 days.
At the end of this period, the external symptoms of the pathogen appeared and it was therefore possible to proceed with the evaluation of the intensity of the infection, on both the parts treated directly with the products (T), and also on the parts which had developed during the test (NT), by means of a visible percentage evaluation scale of the area of affected leafs; the scale comprises, as extremes, the value 100 (healthy plant) and the value 0 (completely infected plant).

For the compound `Cc1nn(C)c(C)c1C(=O)Nc1c(F)ccc2c1CCC2(C)C` [CR-3, 1,3,5-trimethyl-N-(1,1-dimethyl-5-fluoro-4-indanyl)-4-pyrazolecarboxamide], the Phytotoxicity in data set [1] is reported as 0. Further, in data set [2], the “Activity NT (parts which had developed during the test)” value (“Activity NT” for short) is reported as 0 and the “Activity T (parts treated directly with the products)” value (shortened to “Activity T”) was found to be 10.

In turn, `CC1CC(C)(C)c2c(F)ccc(NC(=O)c3cn(C)nc3C(F)F)c21` (stereo not drawn) [Compound N. 1, 3-difluoromethyl-N-(7-fluoro-1,1,3-trimethyl-4-indanyl)-1-methyl-4-pyrazolecarboxamide] registered a Phytotoxicity in data set [1] of 0. In data set [2], the “Activity NT” value came to 90 and the “Activity T” value amounted to 95.

In turn, `Cc1c(C(=O)Nc2ccc(F)c3c2CCC3(C)C)c(C(F)(F)F)nn1C` [CR-2, 1,5-dimethyl-3-trifluoro-methyl-N-(1,1-dimethyl-7-fluoro-4-indanyl)-4-pyrazolecarboxamide] registered a Phytotoxicity in data set [1] of 0. Further, in data set [2], the “Activity NT” value stood at 15 and the “Activity T” value is on record as 25.

As to `CC1CC(C)(C)c2cccc(NC(=O)c3cn(C)nc3C(F)F)c21` (stereo not drawn) [CR-1, 3-difluoromethyl-1-methyl-N-(1,1,3-trimethyl-4-indanyl)-4-pyrazolecarboxamide], the Phytotoxicity in data set [1] is on record as 10. Further, in data set [2], the “Activity NT” value was found to be 65 and the “Activity T” value came out at 70.
